Laboratory results reported in paper PMC6934184, “Selective DNA-PKcs inhibition extends the therapeutic index of localized radiotherapy and chemotherapy” (The Journal of Clinical Investigation, 2019).

Target: T1, TTK (Homo sapiens, UniProt P33981)
T1 construct: purchased Thermo Fisher Scientific (Life Technologies) SelectScreen
Assay: SelectScreen LanthaScreen
Type: binding
Details: read-out: % displacement
Procedure, shortened: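 Percent values come from Thermo SelectScreen profiling of NU5455, combining activity and binding assays. CSF1R was run in Z'LYTE format at Km app ATP, and CAMK1 in Adapta format with ATP listed at 10.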

T1 sequence (P33981 whole entry): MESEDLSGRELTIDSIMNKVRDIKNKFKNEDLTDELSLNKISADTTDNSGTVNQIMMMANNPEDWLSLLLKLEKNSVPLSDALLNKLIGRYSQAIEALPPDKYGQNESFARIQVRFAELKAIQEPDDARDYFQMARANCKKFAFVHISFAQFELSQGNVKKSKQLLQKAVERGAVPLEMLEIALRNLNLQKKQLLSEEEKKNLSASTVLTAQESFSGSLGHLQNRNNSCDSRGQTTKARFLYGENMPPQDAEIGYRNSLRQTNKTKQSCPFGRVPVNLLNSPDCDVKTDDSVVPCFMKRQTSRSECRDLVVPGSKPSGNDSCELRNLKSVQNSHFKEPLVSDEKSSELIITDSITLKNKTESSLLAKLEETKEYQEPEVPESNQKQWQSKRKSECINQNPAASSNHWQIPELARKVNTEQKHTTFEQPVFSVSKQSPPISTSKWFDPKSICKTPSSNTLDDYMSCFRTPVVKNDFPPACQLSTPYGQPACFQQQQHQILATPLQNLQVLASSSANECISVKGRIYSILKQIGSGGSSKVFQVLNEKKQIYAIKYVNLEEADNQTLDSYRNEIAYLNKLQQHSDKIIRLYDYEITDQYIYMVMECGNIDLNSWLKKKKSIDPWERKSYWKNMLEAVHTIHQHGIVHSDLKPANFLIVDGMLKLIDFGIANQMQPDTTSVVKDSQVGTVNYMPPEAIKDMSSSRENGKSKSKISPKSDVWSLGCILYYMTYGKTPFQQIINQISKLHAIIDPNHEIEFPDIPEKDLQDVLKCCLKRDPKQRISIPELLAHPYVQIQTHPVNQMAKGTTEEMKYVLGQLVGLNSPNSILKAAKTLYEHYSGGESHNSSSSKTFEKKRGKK

For `CN(C(=O)CN1CCOCC1)c1ccc2sc3c(-c4cccc5c(=O)cc(N6CC7CCC(C6)O7)oc45)cccc3c2c1` [NU5455], the inhibition at 1 µM was -0.7%.
